In assay [1] the test system is Colo205-LUC-TCF/LEF M1 reporter cell line (Wnt pathway). Put plainly: Colo205-LUC-TCF/LEF M1 reporter gene (luciferase) inhibition. The note with it: 4 hours incubation, luciferase readout. The format is cell-based. The gist of the method: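 Luminescent readout of TCF/LEF-regulated luciferase after a 4 h, 37° C compound exposure in a stable Colo205 reporter clone (10,000 cells/well). Serial 3-fold dilutions started at 20 uM; IC50 derived using DMSO-treated cells and no-cell wells as controls.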
Background: A reporter such as luciferase makes a cellular process visible.

The next assay relates to Colo205. Kind of assay: Proliferation inhibition, Wnt mutant cell line Colo205. Type of assay: cell-based. The note with it: Homo sapiens, COLO 205; Colo205, Wnt pathway-dependent, 96 hours; read-out: Antiproliferative IC50 Colo205. The gist of the method: (§1)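 Log-phase cells are plated (1000 per well) and allowed to settle for 20-24 h at 37° C. Compound is added in 3-fold steps, highest final concentration 20 uM, and growth continues for 96 hours before a Promega viability measurement, from which the IC50 is obtained.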

In another assay the test system is DU4475. Put plainly: Proliferation inhibition, Wnt mutant cell line DU4475. Type of assay: cell-based. The note with it: Homo sapiens, DU-4475; DU4475, Wnt pathway-dependent, 96 hours; read-out: Antiproliferative IC50 DU4475. The gist of the method: as §1
The next assay deals with Hela. Put plainly: Proliferation inhibition, non-Wnt mutant control cell line Hela. The format is cell-based. The conditions noted are these: Homo sapiens, Wnt-independent control cell line, 96 hours, read-out: Antiproliferative IC50 Hela. From the text: The cell lines used in the experiment are Colo205 and DU4475 cell lines whose Wnt pathway is continuously activated and whose proliferation is Wnt pathway-dependent; while the BELA and RKO cell lines, whose Wnt pathway is not activated under normal circumstances and the proliferation is independent of Wnt pathway, as control cell lines. It is Judged that the inhibitory effect of the compound of the present invention on Wnt-dependent proliferation is not caused by other non-specific toxicity.
Treat the Colo205, Du4475, HELA and RKO cell lines cultured in their respective mediums in the logarithmic growth phase, collect the cells and prepare a uniform cell suspension of known concentration, and then add it to the 96-well cell culture plate Cell suspension, so that each well contains 1000 cells. Put it into a 5% CO2 incubator and incubate at 37° C. for 20-24 h. On the second day, the fully dissolved, 3-fold serially diluted compound was added to each cell culture well, so that the final maximum concentration in the cell culture well was 20 uM, and the culture was continued for 96 hours. In this test, Promega's cell viability detection test is used for detection. The more the cells proliferate, the stronger the final signal intensity will be. The detection instrument is SpectraMax, full wavelength mode. The wells only added with DMSO were used as positive control wells, and the wells that were not inoculated with cells were used as negative control wells. […] The IC50 value of cell proliferation inhibition was used to evaluate the inhibitory effect of the compound on the Wnt pathway and the toxic effect on normal cells (Table 2).

The next assay deals with RKO. Put plainly: Proliferation inhibition, non-Wnt mutant control cell line RKO. The format is cell-based. The conditions noted are these: Homo sapiens, Wnt-independent control cell line, 96 hours, read-out: Antiproliferative IC50 RKO. In a few lines: as §1
For the next assay, the system named is HepG2. Put plainly: Proliferation inhibition, HepG2 cell line. Type of assay: cell-based. The conditions noted are these: Homo sapiens; HepG2 cells, 96 hours culture, cell viability detection; read-out: Antiproliferative IC50 HepG2. The gist of the method:
(§2)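 Wnt-dependent proliferation in HepG2 and NCI-H929 cells, seeded at 4000 cells/well and pre-incubated 20-24 h at 37 °C. Cells were then exposed for 96 h to 3-fold serial dilutions (top final concentration 20 uM), and viability was read by signal intensity. IC50 was referenced to DMSO-only wells and cell-free wells.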

Another assay relates to NCI-H929. Put plainly: Proliferation inhibition, NCI-H929 cell line. The format is cell-based, human. The conditions noted are these: Homo sapiens; NCI-H929 cells, 96 hours culture, cell viability detection; read-out: Antiproliferative IC50 NCI-H929. The gist of the method:
as §2

The structures appear in SMILES notation. Some results are limits rather than exact numbers.

Take `C[C@H]1Cn2ccc3nc(NCc4ccc(OCC(F)(F)F)nc4)nc(c32)N1C` [82 (W107)]: the IC50 (as a rule, the concentration needed to halve the response being measured) in assay [1] was found to be 6 nM; with Colo205, 12.4 nM; in the assay on DU4475, 11 nM; with Hela, 1440 nM; in the assay with RKO, 1830 nM; with HepG2, 1 nM.
As for `COC[C@H]1Cn2ccc3nc(NCc4cnn(Cc5ccc(C(F)(F)F)nc5)c4)nc(c32)N1C` [68 (W49)], the IC50 in assay [1] was 12 nM; in the assay with Colo205, 8.2 nM; in the assay with DU4475 it was 12.8 nM; with Hela it was > 10000 nM; in the assay on RKO, > 10000 nM; with HepG2 it was 4.4 nM.
With `[2H]C([2H])([2H])N1c2nc(NCc3ccc(Oc4ccc(C(F)(F)F)nc4)nc3)nc3c2N(CCC3)C(=O)[C@@H]1C` [105 (W199)], the IC50 in assay [1] is 31 nM; in the assay on Colo205 it was 21 nM; with DU4475, 31 nM; in the assay with Hela it was > 10000 nM; in the assay with RKO it was > 10000 nM; with NCI-H929, 45 nM. Also, the 50% inhibitory concentration (IC50) in the assay with HepG2 was found to be 44 nM.
Regarding `CC(C)[C@H]1C(=O)N2CCCc3nc(NCc4ccc(Oc5ccc(C(F)(F)F)nc5)nc4)nc(c32)N1C` [117 (W237), (S)-5-isopropyl-4-methyl-2-(((6-((6-(trifluoromethyl)pyridin-3-yl)oxo)pyridin-3-yl)methyl)amino)-4,5,9,10-tetrahydro-6H,8H-pyrido[3,2,1-de]pteridin-6-one], the IC50 is 4 nM in assay [1]; 3.4 nM with Colo205; 8.2 nM in the assay on DU4475; > 10000 nM in the assay on Hela; > 10000 nM in the assay with RKO; 27 nM with NCI-H929. In addition, the IC50 with HepG2 is 3.1 nM.
As to `C[C@H]1CN(C2CC2)c2nc(NCc3cnn(Cc4ccc(C(F)(F)F)nc4)c3)nc3ccn1c23` [90 (W152)], the IC50 in assay [1] was 24 nM; in the assay on Colo205 it was 42 nM; in the assay on DU4475, 37 nM; in the assay on Hela it was > 10000 nM; in the assay on RKO, 5660 nM.
For the molecule `C[C@H]1Cn2ccc3nc(NCc4ccc(Oc5ccccc5)cc4)nc(c32)N1C` [67 (W46)], the IC50 in assay [1] was determined as 34 nM; with Colo205, 60.4 nM; in the assay on DU4475 it was 62.5 nM; with Hela, 1090 nM; in the assay with RKO, 1180 nM.
On to `[2H]C1([2H])[C@H](COC)N(C)c2nc(NCc3cnn(Cc4ccc(C(F)(F)F)nc4)c3)nc3ccn1c23` [Example 24, (R)-5-(methoxymethyl)-4-methyl-N-((1-((6-(trifluoromethyl)pyridin-3-yl)methyl)-1H-pyrazole-4-yl)methyl)-5,6-dihydro-4H-pyrrolo[3,2,1-de]pteridin-6,6-d2-2-amine], for which the IC50 in assay [1] was 13 nM; in the assay on Colo205, 9 nM; in the assay with DU4475, 9.7 nM; with Hela, > 10000 nM; with RKO it was > 10000 nM.
In the case of `COC[C@H]1C(=O)N2CCCc3nc(NCc4ccc(Oc5ccc(C(F)(F)F)nc5)nc4)nc(c32)N1C` [106 (W190), (S)-5-(methoxymethyl)-4-methyl-2-(((6-((6-(trifluoromethyl)pyridin-3-yl)oxo)pyridin-3-yl)methyl)amino)-4,5,9,10-tetrahydro-6H,8H-pyrido[3,2,1-de]pteridin-6-one], the IC50 was 54 nM in assay [1]; 30 nM in the assay on Colo205; 46 nM in the assay with DU4475; > 10000 nM with Hela; > 10000 nM in the assay on RKO.
As for `C[C@@H]1CN(C)c2nc(NCc3cnn(Cc4ccc(C(F)(F)F)nc4)c3)nc3ccn1c23` [Example 27, (R)-4,6-dimethyl-N-((1-((6-(trifluoromethyl)pyridin-3-yl)methyl)-1H-pyrazol-4-yl)methyl)-5,6-dihydro-4H-pyrrolo[3,2,1-de]pteridin-2-amine], the IC50 in assay [1] is 26 nM; with Colo205 it was 76 nM; in the assay on DU4475, 37 nM; with Hela, > 10000 nM; in the assay on RKO, 4430 nM.
Consider `CN1c2nc(NCc3cnn(CC(F)(F)F)c3)nc3ccn(c23)CC1(C)C` [84 (W123)], for which the IC50 is 17 nM in assay [1]; 41 nM in the assay with Colo205; 36 nM in the assay on DU4475; 4760 nM in the assay with Hela; 5540 nM with RKO.
In the case of `C[C@H]1Cn2ccc3nc(NCc4ccc(OCc5ccccc5)cc4)nc(c32)N1C` [74 (W69)], the IC50 was 10 nM in assay [1]; 39 nM with Colo205; 46 nM with DU4475; 5510 nM in the assay with Hela; 1690 nM with RKO.
As to `CN1c2nc(NCc3cnn(Cc4ccc(C(F)(F)F)nc4)c3)nc3ccn(c23)CC1CC(F)(F)F` (stereo not drawn) [87 (W136)], the IC50 in assay [1] is 7 nM; with Colo205, 6.7 nM; in the assay with DU4475 it was 5.4 nM; in the assay on Hela it was 2920 nM; in the assay on RKO it was 3980 nM.
`O=C1[C@@H]2CCCN2c2nc(NCc3ccc(Oc4ccc(C(F)(F)F)nc4)nc3)nc3c2N1CCC3` [111 (W241), (S)-2-(((6-((6-(trifluoromethyl)pyridin-3-yl)oxo)pyridin-3-yl)methyl)amino)-5,6,8a,9, 10,11-hexahydro-4H,8H-pyrido[3,2,1-de]pyrrolo[2,1-h]pteridin-8-one]: the IC50 in assay [1] is 21 nM; with Colo205, 20 nM; in the assay with DU4475 it was 37 nM; in the assay on Hela, > 10000 nM; in the assay with RKO, > 10000 nM; in the assay on NCI-H929, 94 nM. Also, the IC50 with HepG2 was found to be 40 nM.
With `FC(F)(F)c1ccc(Cn2cc(CNc3nc4c5c(ccn5C[C@@H]5COCCN45)n3)cn2)cn1` [Example 28, (R)—N-((1-((6-(trifluoromethyl)pyridin-3-yl)methyl)-1H-pyrazol-4-yl)methyl)-7a,8,10,11-tetrahydro-7H-[1,4]oxazino[3,4-h]pyrrolo[3,2,1-de]pteridin-2-amine], the IC50 in assay [1] is 27 nM; with Colo205, 29 nM; with DU4475, 34 nM; in the assay on Hela it was > 10000 nM; in the assay on RKO, > 10000 nM.
As to `C[C@H]1C(=O)N2CCCc3nc(NCc4ccc(Oc5cncc(C(F)(F)F)c5)nc4)nc(c32)N1C` [99 (W193)], the IC50 in assay [1] was 27 nM; in the assay on Colo205, 12 nM; in the assay with DU4475, 21 nM; with Hela it was > 10000 nM; in the assay with RKO it was > 10000 nM.
In the case of `C[C@H]1Cn2ccc3nc(NCc4cnn(CC(F)(F)F)c4)nc(c32)N1C` [80 (W104)], the IC50 in assay [1] is 10 nM; with Colo205, 24.6 nM; with DU4475, 27.5 nM; in the assay on Hela, > 10000 nM; in the assay with RKO, > 10000 nM; in the assay on HepG2, 9.3 nM.
For `C[C@H]1Cn2ccc3nc(NCc4cnn(Cc5ccc(F)cc5)c4)nc(c32)N1CCO` [62 (W13)], the IC50 stood at 14 nM in assay [1]; 13.3 nM with Colo205; 13.5 nM in the assay on DU4475; 7200 nM in the assay with Hela; 6540 nM in the assay on RKO.
Take `COC[C@H]1CN(C)c2nc(NCc3cnn(Cc4ccc(C(F)(F)F)nc4)c3)nc3cc(C)n1c23` [Example 25, (R)-6-(methoxymethyl)-4,8-dimethyl-N-((1-((6-(trifluoromethyl)pyridin-3-yl)methyl)-1H-pyrazol-4-yl)methyl)-5,6-dihydro-4H-pyrrolo[3,2,1-de]pteridin-2-amine]: the IC50 was 19 nM in assay [1]; 44 nM in the assay on Colo205; 50 nM with DU4475; > 10000 nM in the assay on Hela; > 10000 nM in the assay on RKO.
